In US11737999B2, “Amino acid compositions and methods for the treatment of post-acute sequelae of COVID-19” (AXCELLA HEALTH INC., priority 2021, dated 2023):

Tests used:
Col1a1 = Col1a1 gene expression (RT-qPCR) in primary human hepatic stellate cells stimulated with TGFβ1; format: cell-based; conditions: for Col1a1 Fold Expression Relative to Control, Mean: single amino acid
IL-6 [1] = experiment: IL-6 cytokine secretion in primary human hepatic stellate cells stimulated with TNFα; format: cell-based; conditions: for Fold Change IL-6 Secretion Normalized Per Cell: Valine 234 μM (plasma level, reference)
MCP1/CCL2 = MCP1/CCL2 secretion by ELISA in primary human hepatocytes with FFA + TNFα; format: cell-based
MCP-1 = MCP-1 chemokine secretion in primary human hepatic stellate cells stimulated with TNFα; format: cell-based
Procollagen Iα1 = Procollagen Iα1 secretion (ELISA) in primary human hepatic stellate cells stimulated with TGFβ1; format: cell-based; conditions: for Procollagen lα1 Secretion (Fold Change of 1X), Mean: first donor; for Procollagen lα1 Secretion (Fold Change of 1X), Mean / Procollagen Iα1 Secretion, Mean: single amino acid
IL-6 [2] = experiment: LPS-induced IL-6 secretion in primary human monocyte-derived macrophages; conditions: LPS, baseline subtracted values
TNF-α = experiment: LPS-induced TNF-α secretion in primary human monocyte-derived macrophages; conditions: 0.15 ng/mL LPS
[3] = hepatic stellate cells, three donors
[4] = hepatic stellate cells, two donors
[5] = Donor 2, Conc. 234 μM (baseline)

Compound: CC(C)[C@H](N)C(=O)O [Valine, L-Valine]
- Col1a1 Fold Expression Relative to Control, Mean (Col1a1; first donor, 234 μM (baseline)): 1.00 fold
- Col1a1 Fold Expression Relative to Control, Mean (Col1a1; first donor, 23420 μM): 1.00 fold
- Col1a1 gene expression (summary in words) (Col1a1; [3]): did not significantly change Col1a1 gene expression in any donor
- Col1a1 Fold Expression Relative to Control, Mean (Col1a1; second donor (Table 27), 234 μM (baseline)): 1.00 fold
- Col1a1 Fold Expression Relative to Control, Mean (Col1a1; second donor (Table 27), 4684 μM): 1.05 fold
- Col1a1 Fold Expression Relative to Control, Mean (Col1a1; second donor (Table 27), 11710 μM): 0.98 fold
- Col1a1 Fold Expression Relative to Control, Mean (Col1a1; second donor (Table 27), 23420 μM): 1.05 fold
- Col1a1 Fold Expression Relative to Control, Mean (Col1a1; second donor (Table 29), 4684 μM): 1.22 fold
- Col1a1 Fold Expression Relative to Control, Mean (Col1a1; second donor (Table 29), 23420 μM): 1.13 fold
- Fold Change IL-6 Secretion Normalized Per Cell (IL-6 [1]; donor 1): 1.0000 fold change
- Fold Change IL-6 Secretion Normalized Per Cell (IL-6 [1]; donor 2): 1.0000 fold change
- IL-6 secretion (summary in words) (IL-6 [1]; [4]): no significant effect on IL-6 secretion
- MCP1 expression relative to Control, Mean (MCP1/CCL2; Donor 1, Conc. 234 μM): −2.4E−15
- MCP1 expression relative to Control, Mean (MCP1/CCL2; Donor 1, Conc. 4684 μM): 23.6867
- MCP1 expression relative to Control, Mean (MCP1/CCL2; Donor 1, Conc. 11710 μM): 77.73
- MCP1 expression relative to Control, Mean (MCP1/CCL2; Donor 1, Conc. 23420 μM): 14.17
- MCP1 expression relative to Control, Mean (MCP1/CCL2; Donor 2, Conc. 234 μM): −1.4E−14
- MCP1 expression relative to Control, Mean (MCP1/CCL2; Donor 2, Conc. 4684 μM): 10.79
- MCP1 expression relative to Control, Mean (MCP1/CCL2; Donor 2, Conc. 11710 μM): 38.25
- MCP1 expression relative to Control, Mean (MCP1/CCL2; Donor 2, Conc. 23420 μM): −30.7921
- MCP1/CCL2 secretion (summary in words) (MCP1/CCL2; primary human hepatocytes, two healthy donors): did not have an effect on MCP1/CCL2 secretion
- Fold Change MCP1 Secretion Normalized Per Cell, Mean (MCP-1; donor 3, Conc. 234 μM): 1.0000 Fold Change
- Fold Change MCP1 Secretion Normalized Per Cell (MCP-1; donor 4, Valine 234 μM (plasma level, reference)): 1.0000 fold change
- MCP-1 secretion (summary in words) (MCP-1; [4]): no significant impact on MCP-1 secretion
- Procollagen lα1 Secretion (Fold Change of 1X), Mean (Procollagen Iα1; 4684 μM): 1.1203 fold
- Procollagen lα1 Secretion (Fold Change of 1X), Mean (Procollagen Iα1; 11710 μM): 1.2069 fold
- Procollagen lα1 Secretion (Fold Change of 1X), Mean (Procollagen Iα1; 23420 μM): 1.2139 fold
- procollagen Iα1 secretion (summary in words) (Procollagen Iα1; [3]): significantly increased procollagen Iα1 secretion in only one of two donors
- Procollagen Iα1 Secretion, Mean (Procollagen Iα1; second donor, Conc. 234 μM (baseline)): 1.0000 Fold Change of 1×
- Procollagen Iα1 Secretion, Mean (Procollagen Iα1; second donor, Conc. 4684 μM): 1.2865 Fold Change of 1×
- Procollagen Iα1 Secretion, Mean (Procollagen Iα1; second donor, Conc. 11710 μM): 1.2877 Fold Change of 1×
- Procollagen Iα1 Secretion, Mean (Procollagen Iα1; second donor, Conc. 23420 μM): 1.3068 Fold Change of 1×
- Procollagen Iα1 Secretion, Mean (Procollagen Iα1; third donor, Conc. 234 μM (baseline)): 1.0000 Fold Change of 1×
- Procollagen Iα1 Secretion, Mean (Procollagen Iα1; third donor, Conc. 4684 μM): 1.0428 Fold Change of 1×
- Procollagen Iα1 Secretion, Mean (Procollagen Iα1; third donor, Conc. 11710 μM): 1.0498 Fold Change of 1×
- Procollagen Iα1 Secretion, Mean (Procollagen Iα1; third donor, Conc. 23420 μM): 1.1139 Fold Change of 1×
- IL-6 Measurements, Mean (IL-6 [2]; Donor 1, Conc. 234 μM (baseline)): 0
- IL-6 Measurements, Mean (IL-6 [2]; [5]): −4.7E−15
- IL-6 Measurements, Mean (IL-6 [2]; Donor 2, Conc. 4684 μM): −4.528
- IL-6 Measurements, Mean (IL-6 [2]; Donor 2, Conc. 11710 μM): −1.196
- IL-6 Measurements, Mean (IL-6 [2]; Donor 2, Conc. 23420 μM): 4.396
- TNF-α Measurements Mean (baseline subtracted) (TNF-α; Donor 1, Conc. 4684 μM): −40.37
- TNF-α Measurements Mean (baseline subtracted) (TNF-α; Donor 1, Conc. 11710 μM): −41.77
- TNF-α Measurements Mean (baseline subtracted) (TNF-α; Donor 1, Conc. 23420 μM): −14.98
- TNF-α Measurements Mean (baseline subtracted) (TNF-α; [5]): −4.7E−15
- TNF-α Measurements Mean (baseline subtracted) (TNF-α; Donor 2, Conc. 4684 μM): −0.00221
- TNF-α Measurements Mean (baseline subtracted) (TNF-α; Donor 2, Conc. 11710 μM): −0.835
- TNF-α Measurements Mean (baseline subtracted) (TNF-α; Donor 2, Conc. 23420 μM): −1.251
- TNF-α Measurements Mean (baseline subtracted) (TNF-α; Donor 3, Conc. 234 μM (baseline)): −2.4E−15
- TNF-α Measurements Mean (baseline subtracted) (TNF-α; Donor 3, Conc. 4684 μM): 0.126
- TNF-α Measurements Mean (baseline subtracted) (TNF-α; Donor 3, Conc. 11710 μM): −2.599
- TNF-α Measurements Mean (baseline subtracted) (TNF-α; Donor 3, Conc. 23420 μM): 3.688
